Measured values taken from publication PMC7374938 (Journal of medicinal chemistry, 2017).
Structures can show the parent of a compound that is named as a salt.

Experiments:
[1] = tested on: C57BL/6J mice; test: Phencyclidine; format: in vivo, mouse; settings: PCP 5 mg/kg, 60 min
[2] = tested on: C57BL/6J mice; test: Baseline; format: in vivo, mouse; settings: 0–15 min, male C57BL/6J mice
[3] = molecular target: T1, human 5-HT2C-INI receptor (Homo sapiens, UniProt P28335); test: Tango β-arrestin-2 recruitment assay; format: cell-based; settings: for β-arrestin recruitment activity: 5-HT2C
T1 sequence (P28335 33-458): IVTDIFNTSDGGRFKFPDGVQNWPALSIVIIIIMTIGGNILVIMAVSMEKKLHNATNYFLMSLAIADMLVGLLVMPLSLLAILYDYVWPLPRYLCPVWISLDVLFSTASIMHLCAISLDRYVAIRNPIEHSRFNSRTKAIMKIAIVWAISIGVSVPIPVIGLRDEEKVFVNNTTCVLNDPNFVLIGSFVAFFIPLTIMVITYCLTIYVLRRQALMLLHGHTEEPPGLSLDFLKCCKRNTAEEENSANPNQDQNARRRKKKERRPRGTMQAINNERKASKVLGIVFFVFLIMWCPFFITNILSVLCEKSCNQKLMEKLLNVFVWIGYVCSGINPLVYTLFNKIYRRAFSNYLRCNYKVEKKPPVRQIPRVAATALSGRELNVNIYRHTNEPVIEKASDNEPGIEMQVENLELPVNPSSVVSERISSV

[4] = tested on: C57BL/6J mice; test: Amphetamine; format: in vivo, mouse; settings: AMPH 3 mg/kg, 90 min
[5] = molecular target: T1, human 5-HT2C-INI receptor; test: Calcium flux assay; format: cell-based; settings: for Emax: read-out: 5-HT2C Emax, Table 1, normalized to % 5-HT, mean ± SEM (n = 3), NA = no activity up to 10 μM; for 5-HT2C EC50: Table 1, FLIPR calcium flux, calculated from averaged pEC50
[6] = molecular target: T2, 5-HT2B (Homo sapiens, UniProt P41595); test: Calcium flux assay; format: cell-based
[7] = molecular target: T3, 5-HT2A (Homo sapiens, UniProt P28223); test: Calcium flux assay; format: cell-based; settings: read-out: 5-HT2A Emax
[8] = cited from earlier work
[9] = molecular target: T2, 5-HT2B; settings: cited from earlier work
[10] = molecular target: T3, 5-HT2A; settings: cited from earlier work
[11] = molecular target: T4, 5-HT2C (Homo sapiens, UniProt P28335); test: Binding affinity
T4 sequence (P28335 33-458): T1 sequence (P28335 33-458)

[12] = molecular target: T4, 5-HT2C; settings: cited from earlier work
[13] = molecular target: CYP2D6 (Homo sapiens, UniProt P10635); test: in vitro; settings: human liver microsomes, probe dextromethorphan
[14] = molecular target: CYP3A4 (Homo sapiens, UniProt P08684); test: in vitro; settings: human liver microsomes, probe midazolam
[15] = tested on: serotonin receptors, dopamine receptors, monoamine transporters, and other selected CNS targets; test: Off-target binding panel; settings: panel of CNS targets

T2 sequence (P41595 whole entry): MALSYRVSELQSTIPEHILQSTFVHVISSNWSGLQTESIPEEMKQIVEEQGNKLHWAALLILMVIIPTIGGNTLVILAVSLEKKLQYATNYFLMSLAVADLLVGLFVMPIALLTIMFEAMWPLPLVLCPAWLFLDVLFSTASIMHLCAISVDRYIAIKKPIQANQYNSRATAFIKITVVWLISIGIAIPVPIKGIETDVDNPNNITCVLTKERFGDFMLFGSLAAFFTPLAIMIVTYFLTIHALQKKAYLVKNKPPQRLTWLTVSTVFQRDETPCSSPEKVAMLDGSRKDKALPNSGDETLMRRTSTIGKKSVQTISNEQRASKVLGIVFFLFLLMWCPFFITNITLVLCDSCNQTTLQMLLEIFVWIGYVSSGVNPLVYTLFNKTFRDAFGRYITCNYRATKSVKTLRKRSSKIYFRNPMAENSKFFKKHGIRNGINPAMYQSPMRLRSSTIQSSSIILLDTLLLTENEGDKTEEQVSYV
T3 sequence (P28223 whole entry): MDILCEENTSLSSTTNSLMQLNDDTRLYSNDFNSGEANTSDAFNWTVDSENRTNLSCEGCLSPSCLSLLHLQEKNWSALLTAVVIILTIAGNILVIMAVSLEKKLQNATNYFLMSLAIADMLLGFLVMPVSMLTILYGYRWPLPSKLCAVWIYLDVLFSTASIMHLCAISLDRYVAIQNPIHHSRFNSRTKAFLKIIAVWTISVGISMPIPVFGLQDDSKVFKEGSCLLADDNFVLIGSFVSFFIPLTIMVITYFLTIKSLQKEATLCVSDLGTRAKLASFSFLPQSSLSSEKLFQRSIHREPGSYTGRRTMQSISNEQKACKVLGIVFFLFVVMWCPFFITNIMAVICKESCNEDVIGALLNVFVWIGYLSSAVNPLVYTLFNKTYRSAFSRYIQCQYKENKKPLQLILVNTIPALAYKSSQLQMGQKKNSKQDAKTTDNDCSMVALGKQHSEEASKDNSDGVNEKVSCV
CYP3A4, sequence (P08684 whole entry): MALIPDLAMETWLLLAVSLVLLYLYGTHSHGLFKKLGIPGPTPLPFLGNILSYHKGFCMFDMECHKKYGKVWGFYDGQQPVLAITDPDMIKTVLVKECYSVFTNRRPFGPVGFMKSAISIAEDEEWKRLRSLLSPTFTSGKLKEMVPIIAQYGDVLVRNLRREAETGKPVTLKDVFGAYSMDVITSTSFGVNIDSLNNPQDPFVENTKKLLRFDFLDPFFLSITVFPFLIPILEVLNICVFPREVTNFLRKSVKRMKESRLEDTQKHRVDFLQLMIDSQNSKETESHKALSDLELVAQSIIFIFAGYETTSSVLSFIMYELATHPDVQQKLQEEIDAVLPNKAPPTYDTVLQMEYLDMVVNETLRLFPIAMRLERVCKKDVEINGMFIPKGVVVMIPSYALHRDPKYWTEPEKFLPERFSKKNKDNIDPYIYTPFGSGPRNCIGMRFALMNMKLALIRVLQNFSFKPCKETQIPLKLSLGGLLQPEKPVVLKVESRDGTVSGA
CYP2D6, sequence (P10635 whole entry): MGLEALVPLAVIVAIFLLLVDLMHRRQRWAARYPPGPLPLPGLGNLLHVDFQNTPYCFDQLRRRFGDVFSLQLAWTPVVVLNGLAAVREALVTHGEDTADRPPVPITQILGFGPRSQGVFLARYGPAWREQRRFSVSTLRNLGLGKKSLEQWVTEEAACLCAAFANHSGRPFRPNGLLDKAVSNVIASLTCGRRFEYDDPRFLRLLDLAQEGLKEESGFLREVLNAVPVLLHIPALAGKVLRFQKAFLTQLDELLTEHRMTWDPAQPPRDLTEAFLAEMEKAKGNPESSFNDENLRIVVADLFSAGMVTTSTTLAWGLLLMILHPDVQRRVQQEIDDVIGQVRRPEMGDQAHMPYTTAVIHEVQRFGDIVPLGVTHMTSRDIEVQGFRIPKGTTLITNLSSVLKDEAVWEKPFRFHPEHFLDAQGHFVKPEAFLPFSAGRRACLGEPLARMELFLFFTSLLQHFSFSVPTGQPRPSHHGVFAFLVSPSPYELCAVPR

SMILES: C[C@H]1CNCCc2ccc(Cl)cc21 [lorcaserin, reference compound]
- effect on PCP-induced hyperactivity ([1]; 3 mg/kg IP): no overall reduction in activity that was statistically significant
- baseline locomotion ([2]; 3 mg/kg IP): decreased baseline locomotion
- Emax ([3]; read-out: β-arrestin-2 Emax): 97 ± 2.1%
- effect on amphetamine-induced hyperactivity ([4]; 3 mg/kg IP): reduced amphetamine-induced hyperactivity

SMILES: COc1ccc(F)cc1C1CC1CNCc1ccccc1C#N (racemic) [(±)-24, 2-[[[[2-(5-Fluoro-2-methoxyphenyl)cyclopropyl]methyl]amino]methyl]benzonitrile Hydrochloride]
- Emax [5]: < 35%

SMILES: COc1ccccc1CN(C)CC1CC1c1cc(F)ccc1OC.Cl (racemic) [(±)-28, 1-[2-(5-Fluoro-2-methoxyphenyl)cyclopropyl]-N-(2-methoxybenzyl)-N-methylmethanamine Hydrochloride]
- reduction of 5-HT2C potency compared to the parent compound (+)-19 ([5]; racemate vs (+)-19): 15 fold

SMILES: COc1ccc(F)cc1C1CC1CNCc1cccc2cc[nH]c12.Cl (racemic) [(±)-38, 1-[2-(5-Fluoro-2-methoxyphenyl)cyclopropyl)-N-[(1H-indol-7-yl)methyl]methanamine Hydrochloride]
- 5-HT2C EC50 [5]: entirely inactive

SMILES: COc1ccc(F)cc1C1CC1CNCc1ccccc1O.Cl (racemic) [(±)-22, 2-[[[[2-(5-Fluoro-2-methoxyphenyl)cyclopropyl]methyl]amino]methyl]phenol Hydrochloride]
- selectivity for 5-HT2C over 5-HT2B [6]: full selectivity

SMILES: COc1ccc(F)cc1C1CC1CNCc1ccccc1C(N)=O (racemic) [(±)-25, 2-[[[[2-(5-Fluoro-2-methoxyphenyl)cyclopropyl]methyl]amino]methyl]benzamide Hydrochloride]
- Emax [5]: < 35%

SMILES: COc1ccc(F)cc1[C@@H]1C[C@H]1CNCc1ccccc1Cl [(−)-27, (–)-N-(2-Chlorobenzyl)-1-[(1R,2R)-2-(5-fluoro-2-methoxyphenyl)cyclopropyl]methanamine Hydrochloride]
- Emax [7]: 84 ± 3.9%

SMILES: COc1ccc(F)cc1C1CC1CNCC1CC1.Cl (racemic) [(±)-17, 1-Cyclopropyl-N-[[2-(5-fluoro-2-methoxyphenyl)cyclopropyl]methyl]methanamine Hydrochloride]
- EC50 [5]: > 300 nM
- 5-HT2C EC50 [5]: lack of activity

SMILES: COc1cc(CC(C)N)c(OC)cc1I (stereo not shown) [DOI]
- effect on the locomotor effects of PCP [8]: potentiate the locomotor effects of PCP

SMILES: COc1ccc(F)cc1[C@H]1C[C@@H]1CNCc1cccs1.Cl [(+)-32, (+)-1-[(1S,2S)-2-(5-Fluoro-2-methoxyphenyl)cyclopropyl]-N-(thiophen-2-ylmethyl)methanamine Hydrochloride]
- selectivity for 5-HT2C over 5-HT2B [6]: full selectivity
- β-arrestin recruitment activity [3]: no β-arrestin recruitment activity

SMILES: CNc1nc(Cc2ccccc2)nc2c1CCNC[C@@H]2C [PF-4479745]
- agonism at 5-HT2B [9]: no measurable agonism
- agonism at 5-HT2A [10]: no measurable agonism

SMILES: CNC[C@H]1C[C@@H]1c1cc(F)ccc1OC.Cl [(+)-15a, (+)-1-[(1S,2S)-2-(5-Fluoro-2-methoxyphenyl)cyclopropyl]-N-methylmethanamine Hydrochloride]
- Ki [11]: 81 nM
- β-arrestin recruitment activity [3]: no β-arrestin recruitment activity

SMILES: CNc1nc(Cc2ccccc2)cc2c1CCNCC2 [PF-04781340]
- selectivity over 5-HT2B [9]: about 160 fold
- 5-HT2C Emax [12]: 99%
- EC50 ([12]; read-out: 5-HT2C EC50): 9 nM

SMILES: COc1ccccc1CNC[C@H]1C[C@@H]1c1cc(F)ccc1OC.Cl [(+)-19, (+)-1-[(1S,2S)-2-(5-Fluoro-2-methoxyphenyl)cyclopropyl]-N-(2-methoxybenzyl)methanamine Hydrochloride]
- inhibition at 10 µM [13]: > 50%
- inhibition at 10 µM [14]: > 50%
- effect on PCP-induced hyperactivity ([1]; 10 mg/kg IP): increased locomotion
- effect on PCP-induced hyperactivity ([1]; 20 mg/kg IP): had no effect on PCP-induced hyperlocomotion
- baseline locomotion ([2]; 10 mg/kg IP): had no effect
- baseline locomotion ([2]; 20 mg/kg IP): had no effect
- effect on amphetamine-induced hyperactivity ([4]; 10 mg/kg IP): no significant effect
- effect on amphetamine-induced hyperactivity ([4]; 20 mg/kg IP): decreased the hyperlocomotion
- off-target affinity [15]: None of the other screened targets were found to display any significant off-target affinity
